Values quoted from earlier work, collected in patent US20230149268A1, “MULTI-PHASE COSMETIC COMPOSITION COMPRISING AT LEAST TWO IMMISCIBLE OILY PHASES” (CHANEL PARFUMS BEAUTE, priority 2020, published 2023).

conditions: Table 1, known values, fatty acids

δd	δh	δp	Compound
16.3	6.6	3.3	CCCCCCCCCCCCCC(=O)O [Myristic acid C14:0, Myristic acid]
16.4	5.1	2.9	CCCCCCCCCC/C=C\CCCCCCCC(=O)O [Gadoleic acid C20:1, Gadoleic acid]
16.3	8.6	4.2	CCCCCCCCCC(=O)O [Capric acid C10:0, Capric acid]
16.4	5.5	3	CCCCCCCC/C=C\CCCCCCCC(=O)O [Oleic acid C18:1, Oleic acid]
16.5	6.3	3.4	CCCCCC/C=C\CCCCCCCC(=O)O [Palmitoleic acid C16:1, Palmitoleic acid]
16.3	7.5	4	CCCCCCCCCCCC(=O)O [Lauric acid C12:0, Lauric acid]
16.3	4.5	2.6	CCCCCCCC/C=C\CCCCCCCCCCCC(=O)O [Erucic acid C22:1, Erucic acid]
16.5	8.2	4.4	CCCCCC[C@@H](O)C/C=C\CCCCCCCC(=O)O [Ricinoleic acid]
16.7	6.1	3.1	CCCCC/C=C\C/C=C\CCCCCCCC(=O)O [Linoleic acid C18:2, Linoleic acid]

More lines, now with the values behind:

Compound	δd	δh	δp
CCCCCCCCCCCCCCCCCCCCCCCC(=O)O [Lignoceric acid C24:0, Lignoceric acid]	16.1	3.9	2.4
CCCCCCCC(=O)O [Caprylic acid C8:0, Caprylic acid]	16.3	10.1	5.2
CCCCCCCCCCCCCCCCCC(=O)O [Stearic acid C18:0, Stearic acid]	16.2	5.2	2.8
CCCCCCCCCCCCCCCCC(=O)O [Margaric acid C17:0, Margaric acid]	16.2	5.4	2.8
CCCCCCCCCCCCCCCCCCCC(=O)O [Arachidic acid C20:0, Arachidic acid]	16.1	4.7	2.7
CCCCCCCCCCCCCCCC(=O)O [Palmitic acid C16:0, Palmitic acid]	16.2	5.8	3.3
CCCCCCCCCCCCCCCCCCCCCC(=O)O [Behenic acid C22:0, Behenic acid]	16.2	4.3	2.3
